Experimental data as given in patent publication US20230173042A1, “METHODS OF TREATMENT WITH ASPARAGINASE” (JAZZ PHARMACEUTICALS IRELAND LTD., priority 2017, published 2023).

Tests used:
Format in all cases: cell-based
AML = test: SynergyScreen of Pegcrisantaspase or Oncaspar with standard of care agents; details: agent combined with Pegcrisantaspase (FIG. 13A) or Oncaspar (FIG. 13B)
Source text: (§1) The special volcano plot of FIG. 9 relates compound sensitivity (as measured by ^10logIC50) to the presence of cancer hotspot mutations. […] The hotspot mutations were derived from statistical analyses of the recurrence patterns of mutations and copy number alterations in patients through separate studies. Axes and statistical analyses are identical to the volcano plot of FIG. 8. The cutoff p-level for significance is 0.32. […] Effect20 For determination of the effect of the compound on the activity of other anti-cancer agents in SynergyScreen™ experiments, a low, fixed concentration is used, corresponding to the concentration at which cell growth is inhibited by 20%. This concentration is determined using the dose-response curves of the single compounds. The concentration is the value on the x-as, corresponding to 80% viability of untreated at the y-axis.
(§2) See the tables depicted in FIG. 13A-FIG. 13B. Grey shading indicates synergistic activity. Light grey shading indicates one experiment and dark grey indicates two experiments. […] Example 5: mPEG-r-crisantaspase conjugates (Pegcrisantaspases) was tested in combination with ABT-737 against HL-60 cell line.

various cell lines = test: Pegcrisantaspase in combination with other compounds (Example 4, FIG. 2); details: compound in combination with Pegcrisantaspase
DLBCL = test: SynergyScreen of Pegcrisantaspase or Oncaspar with standard of care agents; details: agent combined with Pegcrisantaspase (FIG. 13A) or Oncaspar (FIG. 13B)
Source text: as §1, §2

HL-60 cell line = test: Combination (synergy) cell proliferation assay with pegcrisantaspase; details: for conclusion (synergy): anti-cancer agent in combination with pegcrisantaspase, HL-60 (AML)
Procedure: (§3) Plate preparation. The stocks of the mixtures and single agents were diluted in DMSO or 0.9% sodium chloride to generate a 7-points dose-response series. After further 31.6 times dilution in 20 mM sterile Hepes buffer pH 7.4 (reference compounds) or medium (pegcrisantaspase), 5 μl of pegcrisantaspase solution, and 5 μl of reference compound was added to 40 μl pre-plated cells in duplicate in a 384-well assay plate. The final DMSO concentration during incubation was 0.4% in all wells.
(§4) Cell proliferation assay. A cell assay stock was thawed and diluted in appropriate medium and dispensed in a 384-well plate, depending on the cell line used, at a concentration of 800-3200 cells per well in […]: i.e., DB: 800 cells per well; RL: 1000 cells per well; MV-4-11: 1600 cells per well; KG-1, HL-60 and HT 3200 cells per well. For each used cell line the cell density was optimized previously. The margins of the plate were filled with phosphate-buffered saline. Plated cells were incubated in a humidified atmosphere of 5% CO2 at 37° C. After 24 hours, 5 μl of pegcrisantaspase solution, and 5 μl of reference compound was added, and plates were further incubated for another 72 hours. After 72 hours, plates were cooled in 30 minutes to room temperature and 25 μl of ATPlite 1Step™ (PerkinElmer) solution was added to each well, and subsequently shaken for 2 minutes. After 5 minutes of incubation in the dark at room temperature, the luminescence was recorded on an Envision multimode reader (PerkinElmer).
(§5) Controls: t=0 signal. On a parallel plate, 40 μl cells were dispensed in quadruplicate and incubated in a humidified atmosphere of 5% CO2 at 37° C. After 24 hours, plates were cooled to room temperature in 30 minutes. 5 μl DMSO-containing Hepes buffer, 5 μl 0.9% sodium chloride-containing medium and 25 μl ATPlite 1Step™ solution were added and subsequently mixed for 2 minutes. Luminescence was measured after 10 minute incubation (=luminescencet=0) in the dark.
(§6) Cell growth control. The cellular doubling times of all cell lines are calculated from the t=0 hours and t=end growth signals of the untreated cells. If the doubling time is out of specification (0.5-2.0 times deviating from historic average) the assay is invalidated.
(§7) Maximum signals. On each 384-well plate, the maximum luminescence was recorded after incubation for 72 hours without compound in the presence of 0.4% DMSO. All equivalent wells (usually 14) were averaged. This average is defined as: luminescenceuntreated,t=72h. Dose response curves. Accurate single agent IC50s are needed for combination analysis. For each single agent its dose-response signal was fitted by a 4-parameter logistics curve using XL-fit 5 (IDBS software):
(§8) luminescence=bottom+(top-bottom)/(1+10^(logIC50−log[cpd])−hill))
(§9) [cpd] is the compound concentration tested. hill is the Hill-coefficient. Bottom and top are the asymptotic minimum and maximum of the curve. Combination Index (CI) determination. The CI is one of the most widely used quantitative indications of synergy. The CI evaluates the concentrations needed to achieve a fixed-effect. A CI of below 1 indicates synergy.
(§10) CI is defined for a certain percentage cell viability (V), which is the signal related to a non-exposed control: V=100%×luminescencetreated,t=72h/luminescenceuntreated,t=72h. The concentrations of the two compounds cpd1 and cpd2 needed to reach a certain percentage cell viability V in combination are then compared to the concentrations needed as single agents:
(§11) IC50,cpd1 would signify the IC50 of cpd1 alone. The CI is labelled by %-effect, to follow conventions, so CI75 signifies the CI at 25% viability Curve shift analysis. This analysis provides a visual confirmation of synergy^1. The concentrations of the mixtures of compounds 1 and 2 (cpd1 and cpd2), and the single agents, were expressed in terms of IC50 equivalents (in ‘units’ of IC50):
(§12) The dose-response signal was fitted by a 4-parameter logistics curve using XL-fit 5 (IDBS software)

KG-1 = test: as above; details: anti-cancer agent in combination with pegcrisantaspase; KG-1 (AML)
Procedure: as §3, §4, §5, §6, §7, §8, §9, §10, §11, §12

DB = test: as above; details: anti-cancer agent in combination with pegcrisantaspase; DB (DLBCL)
Procedure: as §3, §4, §5, §6, §7, §8, §9, §10, §11, §12

HT = test: as above; details: anti-cancer agent in combination with pegcrisantaspase; HT (DLBCL)
Procedure: as §3, §4, §5, §6, §7, §8, §9, §10, §11, §12

RL = test: as above; details: anti-cancer agent in combination with pegcrisantaspase; RL (DLBCL)
Procedure: as §3, §4, §5, §6, §7, §8, §9, §10, §11, §12

Row | Structure (SMILES) | effect in AML when used with Pegcrisantaspase or Oncaspar (AML) | effect in DLBCL when used with Pegcrisantaspase or Oncaspar (DLBCL) | conclusion (synergy) (HL-60 cell line) | conclusion (synergy) (KG-1) | conclusion (synergy) (DB) | conclusion (synergy) (RL) | further results
1 | Nc1ccn([C@@H]2O[C@H](CO)[C@@H](O)[C@@H]2O)c(=O)n1 [cytarabine] | increased effect |  |  |  |  |  | potentiation of the effect by Pegcrisantaspase (various cell lines): synergy
2 | COc1cccc2c1C(=O)c1c(O)c3c(c(O)c1C2=O)C[C@@](O)(C(C)=O)C[C@@H]3O[C@H]1C[C@H](N)[C@H](O)[C@H](C)O1 [daunorubicin] | increased effect |  |  |  |  |  | 
3 | O=C(Cc1cccc(OC(F)(F)F)c1)Nc1ccc(CCCCc2nnc(NC(=O)Cc3ccccn3)s2)nn1 [CB-839] |  | increased effect |  |  |  |  | 
4 | Cn1c(=O)n(-c2ccc(C(C)(C)C#N)cc2)c2c3cc(-c4cnc5ccccc5c4)ccc3ncc21 [dactolisib] | increased effect | increased effect | synergy (CI < 1.0: synergy) | strong synergy (CI < 0.3: strong synergy) |  |  | 
5 | CC1(C)CCC(CN2CCN(c3ccc(C(=O)NS(=O)(=O)c4ccc(NCC5CCOCC5)c([N+](=O)[O-])c4)c(Oc4cnc5[nH]ccc5c4)c3)CC2)=C(c2ccc(Cl)cc2)C1 [venetoclax] |  |  | strong synergy (CI < 0.3: strong synergy) | strong synergy (CI < 0.3: strong synergy) | synergy (CI < 1.0: synergy) | synergy (CI < 1.0: synergy) | conclusion (synergy) (HT): no synergy (CI = 1.0: no synergy)
6 | CC(C)C[C@H](NC(=O)[C@H](Cc1ccccc1)NC(=O)c1cnccn1)B(O)O [bortezomib] | increased effect | increased effect |  |  |  |  | 
7 | CC(C)C[C@H](NC(=O)[C@H](CCc1ccccc1)NC(=O)CN1CCOCC1)C(=O)N[C@@H](Cc1ccccc1)C(=O)N[C@@H](CC(C)C)C(=O)[C@@]1(C)CO1 [carfilzomib] | increased effect | increased effect | antagonism | synergy (CI < 1.0: synergy) | synergy (CI < 1.0: synergy) | synergy (CI < 1.0: synergy) | conclusion (synergy) (HT): no synergy/antagonism
8 | C[C@]12C=CC(=O)C=C1CC[C@@H]1[C@@H]2[C@@H](O)C[C@@]2(C)[C@H]1CC[C@]2(O)C(=O)CO [prednisolone] |  | increased effect |  |  | no synergy (CI = 1.0: no synergy) | synergy (CI < 1.0: synergy) | 
9 | CO[C@H]1C[C@@H]2CC[C@@H](C)[C@@](O)(O2)C(=O)C(=O)N2CCCC[C@H]2C(=O)O[C@H]([C@H](C)C[C@@H]2CC[C@@H](OCCO)[C@H](OC)C2)CC(=O)[C@H](C)/C=C(\C)[C@@H](O)[C@@H](OC)C(=O)[C@H](C)C[C@H](C)/C=C/C=C/C=C/1C [everolimus] |  | increased effect |  |  |  |  | 
10 | CC[C@]1(O)C[C@H]2CN(CCc3c([nH]c4ccccc34)[C@@](C(=O)OC)(c3cc4c(cc3OC)N(C=O)[C@H]3[C@@](O)(C(=O)OC)[C@H](OC(C)=O)[C@]5(CC)C=CCN6CC[C@]43[C@@H]65)C2)C1 [vincristine] |  | increased effect |  |  |  |  | 
11 | CN(C)CC[C@H](CSc1ccccc1)Nc1ccc(S(=O)(=O)NC(=O)c2ccc(N3CCN(Cc4ccccc4-c4ccc(Cl)cc4)CC3)cc2)cc1[N+](=O)[O-] [ABT-737] | increased effect | increased effect | strong synergy (CI < 0.3: strong synergy) | strong synergy (CI < 0.3: strong synergy) | synergy (CI < 1.0: synergy) | synergy (CI < 1.0: synergy) | IC50 (HL-60 cell line; Homo sapiens, single agents, dose-response curves of FIG. 3, HL-60): 0.835 µM; Emax (HL-60 cell line; Homo sapiens, single agents, dose-response curves of FIG. 3, HL-60, read-out: maximal effect): 67%; IC50 (HL-60 cell line; Homo sapiens, therapeutic as single agent, HL-60, 72 hours): 1.21 µM; conclusion (synergy) (HT): synergy (CI < 1.0: synergy); potentiation of the effect by Pegcrisantaspase (various cell lines): synergy
